Drawing on US20220296573A1, “NOVEL COMPOUNDS AND PHARMACEUTICAL COMPOSITIONS THEREOF FOR THE TREATMENT OF INFLAMMATORY DISORDERS” (Galapagos NV, priority 2019, published 2022), this text covers IC50 for ten molecules.

In general, IC50 refers to the point on the concentration scale where inhibition reaches its midpoint.

Structures are written as SMILES.

This test has as its target T1, human IRAK-4 (Homo sapiens, UniProt Q9NWZ3).
T1 construct: purchased Carna Biosciences 09 145
T1 sequence (Q9NWZ3 1-460): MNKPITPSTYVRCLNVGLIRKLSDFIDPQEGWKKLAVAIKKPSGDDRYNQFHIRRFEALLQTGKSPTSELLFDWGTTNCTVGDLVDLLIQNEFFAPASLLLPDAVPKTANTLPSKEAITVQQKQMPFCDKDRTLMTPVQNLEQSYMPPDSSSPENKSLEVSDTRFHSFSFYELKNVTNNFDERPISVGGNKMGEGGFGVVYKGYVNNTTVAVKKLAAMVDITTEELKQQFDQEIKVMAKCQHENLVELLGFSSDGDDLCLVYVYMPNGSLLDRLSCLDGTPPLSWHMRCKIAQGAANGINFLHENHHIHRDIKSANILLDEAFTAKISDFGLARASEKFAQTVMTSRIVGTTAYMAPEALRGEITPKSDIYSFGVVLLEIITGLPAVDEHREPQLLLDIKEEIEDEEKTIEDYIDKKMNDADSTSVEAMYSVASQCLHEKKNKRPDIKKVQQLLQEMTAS
Nature of the test: Phosphorylation IC50 determination for human IRAK-4 (ADP-Glo Kinase Assay). As to conditions: human IRAK-4, substrate RIP140, Km ATP; read-out: IRAK4 ADPglo biochemical assay IC50. On the procedure:
The phosphorylation of the substrate RIP140 (SEQ ID1) by IRAK4 at Km ATP was detected with the ADP-Glo Kinase Assay (Promega, Cat #V9103), a luminescent kinase assay which measures the ADP formed from a kinase reaction. (Zegzouti et al. 2009) In a second step the kinase reaction was terminated and all the remaining ATP was depleted. In a final step the ADP was converted into ATP and this newly synthesized ATP was measured by using a luciferase/luciferin reaction with a luminescent reader. The luminescent signal positively correlated with kinase activity, in particular kinase inhibition giving a decrease of the luminescent signal.
For the semi-automated assay, the positive control (100% inhibition) was prepared by diluting 10 mM staurosporine stock mixture (20 μL) in water (3.8 mL) and DMSO (180 μL), thus resulting in a […] staurosporine solution at 1% DMSO (final concentration after further dilution in the kinase reaction).
For the automated assay, no pre-dilution of the 10 mM staurosporine stock was made. 10 mM staurosporine was spotted directly in the assay plate using acoustic dispensing and complemented with DMSO to result in a similar final concentration as mentioned above.
For the semi-automated assay, the negative control (0% inhibition) was prepared by mixing water (3.8 mL) and DMSO (200 μL) resulting in a final concentration of 1% DMSO after further dilution in the kinase reaction. For the automated assay no pre-dilution of DMSO was done. 100% DMSO was spotted directly on the assay plate.
The assay buffer solution was prepared at a concentration corresponding to 5 fold the final (most diluted) assay concentration by mixing a solution of 125 mM TRIS pH 7.5+0.05% Triton X-100+2.5 mM EGTA (5.27 mL) with 1M mgCl2 (72 μL), 1M DTT (57.6 μL), and 200 mM MnCl2 (360 μL).
For example, for the semi-automated method, the enzyme-substrate mixture was prepared by mixing water (3999 μL), assay buffer solution (1380 μL), 1 mM RIP140 (138 μL—SEQ ID1), and 200 ng/mL IRAK 4 (3.45 μL Carna Biosciences, 09 145).
For semi-automated method, the ATP mixture was prepared at a concentration corresponding to 2.5 fold the final (most diluted) assay concentration of the semi-automated method and 1.5 fold the final (most diluted) assay concentration of the automated method. For example, for the semi-automated method, the ATP mixture was prepared by mixing water (4126 μL), assay buffer solution (1380 μL), and 10 mM ATP (13.80 μL).
The assay are performed either in a semi-automated or fully automated manner. The assay volume and the incubation time of the ADP detection were different accordingly the method used.
The compounds were prepared as a serial dilution of 10 point dose responses with 1/5 dilution steps in 100% DMSO starting from 2 mM highest concentration, diluted 1/20 in water. 1 μL was transferred dry to the assay plates.
On each assay plate 32 wells of each control (positive & negative) were added, followed by 2 μL enzyme-substrate mixture.
The reaction was started by adding 2 μL diluted ATP (final concentration Km ATP) on the assay plates. Plates were centrifuged for a few seconds at 1000 rpm followed by an incubation at r.t. for 120 min.
The reactions were stopped and the unconsumed ATP was depleted by adding 5 μL ADP-glo Reagent (Promega, Cat #V9103) to the reaction. The plates were quickly centrifuged at 1000 rpm and incubated at r.t. for 40 min corresponding to full ATP depletion.
The ADP was converted back to ATP and luciferase and luciferin were introduced to detect ATP by adding 10 μL kinase detection reagent (Promega, Cat #V9103) to the reaction. The plates were centrifuged for a few seconds at 1000 rpm and incubated at r.t. for a further 30 min.
Luminescent read out was performed on an Envision luminescent reader (Perkin Elmer).
For the automated assay, the compounds were prepared as a serial dilution of 10 point dose responses with 1/5 dilution steps in 100% DMSO starting from 2 mM highest concentration. […]
On the technique in general: ADP-Glo turns the ADP formed in a reaction into a luminescent signal.
Take `CC(F)(F)c1cccc(C(=O)Nc2cn3cc(C4COCCO4)nc3cc2C(N)=O)n1` (stereo not shown) [Compound 11, 6-(6-(1,1-difluoroethyl)picolinamido)-2-(1,4-dioxan-2-yl)imidazo[1,2-a]pyridine-7-carboxamide]: the IC50 fell in the range of 5 to 10 nM.

For the molecule `COc1cc2nc(C3COCCO3)cn2cc1NC(=O)c1cccn(C2CC2)c1=O` (single isomer, unassigned) [Compound 8, 1-cyclopropyl-N-[2-(1,4-dioxan-2-yl)-7-methoxy-imidazo[1,2-a]pyridin-6-yl]-2-oxo-pyridine-3-carboxamide], the half-maximal inhibitory concentration (IC50) lay in the range of 5 to 10 nM.

As for `NC(=O)c1cc2nc(C3COCCO3)cn2cc1NC(=O)c1cccc(C(F)(F)F)n1` (stereo not shown) [Compound 6, 2-(1,4-dioxan-2-yl)-6-[[6-(trifluoromethyl)pyridine-2-carbonyl]amino]imidazo[1,2-a]pyridine-7-carboxamide], the IC50 lay within 5 to 10 nM.

For the molecule `COc1cc2nc(C3COCCO3)cn2cc1NC(=O)c1cccn(C2CC2)c1=O` (racemic) [Compound 1, 1-cyclopropyl-N-[2-(1,4-dioxan-2-yl)-7-methoxy-imidazo[1,2-a]pyridin-6-yl]-2-oxo-pyridine-3-carboxamide], the IC50 was in the range of 5 to 10 nM.

As to `COc1cc2nc(C3COCCO3)cn2cc1NC(=O)c1cccn(C2CCC2)c1=O` (stereo not shown) [Compound 5, 1-cyclobutyl-N-[2-(1,4-dioxan-2-yl)-7-methoxy-imidazo[1,2-a]pyridin-6-yl]-2-oxo-pyridine-3-carboxamide], the IC50 is 10 to 50 nM.

With `CNC(=O)c1cc2nc(C3COCCO3)cn2cc1NC(=O)c1cccc(C(F)(F)F)n1` (stereo not shown) [Compound 9, 2-(1,4-dioxan-2-yl)-N-methyl-6-(6-(trifluoromethyl)picolinamido)imidazo[1,2-a]pyridine-7-carboxamide], the IC50 lay within 5 to 10 nM.

With `COc1cc2nc(C3CCOCC3)cn2cc1NC(=O)c1cccn(C2CC2)c1=O` [Compound 3, (1-cyclopropyl-N-[7-methoxy-2-(oxan-4-yl)imidazo[1,2-a]pyridin-6-yl]-2-oxopyridine-3-carboxamide)], the concentration for half-maximal inhibition (IC50) lay in the range of 5 to 10 nM.

For `COc1cc2nc(C3CCS(=O)(=O)CC3)cn2cc1NC(=O)c1cccn(C2CC2)c1=O` [Compound 23, 1-cyclopropyl-N-(2-(1,1-dioxidotetrahydro-2H-thiopyran-4-yl)-7-methoxyimidazo[1,2-a]pyridin-6-yl)-2-oxo-1,2-dihydropyridine-3-carboxamide], the IC50 was in the range of 0.1 to 5 nM.

Take `COc1cc2nc(C3CCOCC3)cn2cc1NC(=O)c1cccc(C(F)(F)F)n1` [Compound 2, N-(7-methoxy-2-tetrahydropyran-4-yl-imidazo[1,2-a]pyridin-6-yl)-6-(trifluoromethyl)pyridine-2-carboxamide]: the half-inhibitory concentration (IC50) fell in the range of 10 to 50 nM.

Consider `COc1cc2nc(C3COCCO3)cn2cc1NC(=O)c1cccn(C2CC2)c1=O` (single isomer, unassigned) [Compound 7, 1-cyclopropyl-N-[2-(1,4-dioxan-2-yl)-7-methoxy-imidazo[1,2-a]pyridin-6-yl]-2-oxo-pyridine-3-carboxamide], for which the IC50 was in the range of 5 to 10 nM.
